Experimental data reported in patent US20170232031A1, “Inhibitors of Zika Virus” (Riboscience LLC, priority 2016, published 2017).
Read-outs that look alike come from different tables or passages of the source.

What was measured:
[1] = Cytotoxicity (CC50) alongside HCV GT1a replicon assay; type: cell-based; details: HCV GT1a (H77) replicon cells; replicon genotype 1a (H77)
human RNA polymerase II [2] = molecular target: T1, human RNA polymerase II (Homo sapiens, UniProt P24928+P30876); assay: RNA polymerase II specific reporter gene assay in HeLa cells; type: cell-based; details: 10 or 100 μM (highest soluble concentrations)
T1 construct: endogenous in cells; host or cells: HeLa

human RNA polymerase III [3] = molecular target: T2, human RNA polymerase III (Homo sapiens, UniProt O14802+Q9NW08); assay: RNA polymerase III specific reporter gene assay in HeLa cells; type: cell-based; details: 10 or 100 μM (highest soluble concentrations)
T2 construct: endogenous in cells; host or cells: HeLa

[4] = system: HCV replicon of genotype 1b (Con1); assay: HCV replicon genotype 1b antiviral activity; type: cell-based; details: Hepatitis C virus; replicon genotype 1b (Con1); read-out: HCV GT1b EC50
human RNA polymerase I [5] = molecular target: T3, human RNA polymerase I (Homo sapiens, UniProt O95602+Q9H9Y6); assay: RNA polymerase I specific reporter gene assay in HeLa cells; type: cell-based; details: 10 or 100 μM (highest soluble concentrations)
T3 construct: endogenous in cells; host or cells: HeLa

[6] = system: HCV replicon of genotype 1a (H77); assay: HCV replicon genotype 1a antiviral activity; type: cell-based; details: Hepatitis C virus; replicon genotype 1a (H77); read-out: HCV GT1a EC50
[7] = system: ZIKV strain MR766 (Genbank LC002520); assay: Antiviral activity against ZIKV replication in cells; type: cell-based, Zika virus
Description: (§1) The human hepatoma cell line Huh-7, are cultured in DMEM without phenol-red (Cellgro Mediatech, Cat #10-013-CV containing 4.5 g/l glucose, L-glutamine & sodium pyruvate). The medium is further supplemented with 10% (v/v) FBS (ATLAS Cat # F-0500-A, lot#850114A) and 1% (vlv) penicillin/streptomycin (Cellgro Mediatech #30-022-CI). Cells are maintained at 37° C. in a humidified 5% CO2 atmosphere. Zika virus representative strain titers are measured on BHK-21 cells, using a standard plaque assay procedure. For the determination of EC50 of nucleoside in the antiviral assay, Huh-7 cells are plated in white 96-well plates in MEM media supplemented with 10% FBS and 1% penicillin/streptomycin. After incubation for 24 h, the cells are infected at a multiplicity of infection (MOI) of 0.5 for 2 h at 37° C. Ten three-fold dilutions of compounds are prepared in the same media supplemented with 1% DMSO. After the 2 h adsorption phase, the virus is aspirated off and diluted compound is added to four wells each. Huh-7 cells are plated as described above and exposed to the same concentration range of compounds. Untreated cells are carried along as a control. After a 3-day incubation at 37° C., the cell viability is determined using Cell-titer Glo™ reagent (Promega, Madison, Wis.) that is added to each well and incubated for 5 min. Plates are analyzed using a Thermo Luminoskan plate reader (Waltham, Mass.).

[8] = Solubility in cell culture medium / aqueous media; details: plasma or biological fluid
[9] = Cytotoxicity (CC50) alongside HCV GT1b replicon assay; details: HCV GT1b (Con1) replicon cells
[10] = Cell viability (CC50) alongside ZIKV antiviral assay, Cell-titer Glo; type: cell-based; details: human, Huh-7 cells
Description: as §1

RSV polymerase = assay: Activity against RSV polymerase; type: biochemical
human RNA polymerase II [11] = molecular target: T1, human RNA polymerase II; assay: Human RNA polymerase II activity in cell extracts; type: biochemical
human DNA polymerase α = molecular target: T4, human DNA polymerase α (Homo sapiens, UniProt P09884); assay: Inhibition of human DNA polymerase α; type: biochemical
T4 sequence (P09884 1-1462): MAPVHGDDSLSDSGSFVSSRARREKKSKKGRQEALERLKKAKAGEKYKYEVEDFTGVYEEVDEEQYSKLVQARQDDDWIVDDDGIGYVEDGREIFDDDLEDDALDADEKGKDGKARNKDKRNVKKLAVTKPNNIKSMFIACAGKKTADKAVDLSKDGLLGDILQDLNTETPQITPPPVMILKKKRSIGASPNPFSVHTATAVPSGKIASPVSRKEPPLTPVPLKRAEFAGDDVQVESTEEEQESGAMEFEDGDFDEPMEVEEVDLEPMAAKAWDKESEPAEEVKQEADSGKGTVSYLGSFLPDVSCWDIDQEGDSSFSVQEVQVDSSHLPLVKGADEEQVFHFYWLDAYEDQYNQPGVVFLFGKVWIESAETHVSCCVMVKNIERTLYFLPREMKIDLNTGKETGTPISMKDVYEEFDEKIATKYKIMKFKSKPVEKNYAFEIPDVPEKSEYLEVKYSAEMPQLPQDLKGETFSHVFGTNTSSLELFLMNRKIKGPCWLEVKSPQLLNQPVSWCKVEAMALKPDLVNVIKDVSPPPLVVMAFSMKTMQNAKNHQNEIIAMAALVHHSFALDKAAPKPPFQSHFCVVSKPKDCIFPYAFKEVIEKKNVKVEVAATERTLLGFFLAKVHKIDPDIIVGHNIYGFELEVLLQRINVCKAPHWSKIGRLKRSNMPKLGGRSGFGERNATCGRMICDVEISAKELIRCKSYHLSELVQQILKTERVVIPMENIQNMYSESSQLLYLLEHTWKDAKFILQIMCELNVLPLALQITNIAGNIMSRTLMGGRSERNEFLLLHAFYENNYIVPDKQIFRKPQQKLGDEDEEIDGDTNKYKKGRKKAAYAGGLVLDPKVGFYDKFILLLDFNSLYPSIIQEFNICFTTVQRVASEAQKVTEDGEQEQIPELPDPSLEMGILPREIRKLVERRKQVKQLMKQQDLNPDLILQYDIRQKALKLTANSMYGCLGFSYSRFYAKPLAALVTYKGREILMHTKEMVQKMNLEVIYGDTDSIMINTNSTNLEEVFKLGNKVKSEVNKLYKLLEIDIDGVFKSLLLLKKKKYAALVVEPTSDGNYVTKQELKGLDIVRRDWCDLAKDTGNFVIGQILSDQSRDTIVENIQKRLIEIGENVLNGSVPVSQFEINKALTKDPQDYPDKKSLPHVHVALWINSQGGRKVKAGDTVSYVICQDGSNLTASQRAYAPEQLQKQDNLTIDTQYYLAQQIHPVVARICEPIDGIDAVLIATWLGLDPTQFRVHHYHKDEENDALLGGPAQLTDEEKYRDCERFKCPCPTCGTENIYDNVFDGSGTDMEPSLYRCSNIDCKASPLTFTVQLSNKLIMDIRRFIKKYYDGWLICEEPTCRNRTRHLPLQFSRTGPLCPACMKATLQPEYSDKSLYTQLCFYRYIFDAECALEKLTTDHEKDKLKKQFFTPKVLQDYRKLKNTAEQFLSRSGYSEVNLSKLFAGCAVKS

influenza polymerase = influenza polymerase (Influenza A virus, UniProt P03431); assay: Activity against influenza polymerase; type: biochemical
HCV polymerase = HCV polymerase (Hepatitis C virus genotype 1a, UniProt P27958); assay: Inhibition of HCV polymerase; type: biochemical
Dengue virus polymerase = Dengue virus polymerase (Dengue virus type 2, UniProt P29990); assay: Inhibition of Dengue virus polymerase; type: biochemical
human RNA polymerase III [12] = molecular target: T2, human RNA polymerase III; assay: Human RNA polymerase III activity in cell extracts; type: biochemical
human DNA polymerase β = human DNA polymerase β (Homo sapiens, UniProt P06746); assay: Inhibition of human DNA polymerase β; type: biochemical
human RNA polymerase I [13] = molecular target: T3, human RNA polymerase I; assay: Human RNA polymerase I activity in cell extracts; type: biochemical
[14] = molecular target: T5, mitochondrial DNA polymerase pol γ (Homo sapiens, UniProt P54098); assay: Inhibition of mitochondrial DNA polymerase pol γ; type: biochemical; details: read-out: DNA pol γ IC50
T5 sequence (P54098 1-1239): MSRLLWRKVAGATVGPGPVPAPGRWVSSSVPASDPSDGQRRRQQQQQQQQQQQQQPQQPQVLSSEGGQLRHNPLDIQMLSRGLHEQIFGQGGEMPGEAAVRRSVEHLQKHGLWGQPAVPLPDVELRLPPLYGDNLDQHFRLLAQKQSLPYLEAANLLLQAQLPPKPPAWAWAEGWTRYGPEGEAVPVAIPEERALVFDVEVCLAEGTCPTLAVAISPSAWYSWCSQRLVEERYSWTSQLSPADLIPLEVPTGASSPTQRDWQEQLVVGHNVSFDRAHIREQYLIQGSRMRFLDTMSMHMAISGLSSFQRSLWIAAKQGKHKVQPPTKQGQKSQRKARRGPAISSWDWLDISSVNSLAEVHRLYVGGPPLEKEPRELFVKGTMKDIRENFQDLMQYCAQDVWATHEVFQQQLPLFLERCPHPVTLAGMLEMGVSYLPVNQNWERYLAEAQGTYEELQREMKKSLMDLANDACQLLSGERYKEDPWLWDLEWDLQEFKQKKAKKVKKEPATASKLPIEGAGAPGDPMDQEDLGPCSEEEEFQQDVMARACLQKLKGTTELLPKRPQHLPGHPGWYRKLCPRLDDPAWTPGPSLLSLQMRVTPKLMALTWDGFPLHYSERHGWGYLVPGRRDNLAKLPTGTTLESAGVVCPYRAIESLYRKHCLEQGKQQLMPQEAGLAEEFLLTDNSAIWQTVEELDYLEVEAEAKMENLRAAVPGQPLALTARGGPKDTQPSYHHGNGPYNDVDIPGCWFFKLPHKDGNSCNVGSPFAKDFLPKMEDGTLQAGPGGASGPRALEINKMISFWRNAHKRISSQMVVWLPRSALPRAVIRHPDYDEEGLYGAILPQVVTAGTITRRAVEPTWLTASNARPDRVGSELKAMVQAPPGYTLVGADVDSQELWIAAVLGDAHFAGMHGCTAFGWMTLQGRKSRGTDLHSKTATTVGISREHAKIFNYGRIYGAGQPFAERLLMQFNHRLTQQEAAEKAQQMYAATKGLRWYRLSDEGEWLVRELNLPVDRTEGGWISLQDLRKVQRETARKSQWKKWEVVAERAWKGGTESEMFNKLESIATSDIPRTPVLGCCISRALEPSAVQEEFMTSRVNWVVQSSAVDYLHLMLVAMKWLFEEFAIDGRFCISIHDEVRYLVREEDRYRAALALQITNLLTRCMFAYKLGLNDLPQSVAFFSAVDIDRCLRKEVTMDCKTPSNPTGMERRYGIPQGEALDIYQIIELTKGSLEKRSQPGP

C[C@H](NP(=O)(OC[C@@]1(N=[N+]=[N-])O[C@@H](n2ccc(=O)[nH]c2=O)[C@H](O)[C@@H]1O)Oc1cccc2ccccc12)C(=O)OCc1ccccc1 (stereo partly drawn) [Compound I-1, benzyl ((((2R,3S,4R,5R)-2-azido-5-(2,4-dioxo-3,4-dihydropyrimidin-1(2H)-yl)-3,4-dihydroxytetrahydrofuran-2-yl)methoxy)(naphthalen-1-yloxy)phosphoryl)-L-alaninate]
CC50 [1]: > 10 µM | inhibition of human RNA polymerase II activity (reporter gene) (human RNA polymerase II [2]): did not inhibit | inhibition of human RNA polymerase III activity (reporter gene) (human RNA polymerase III [3]): did not inhibit | EC50 [4]: 0.33 µM | inhibition of human RNA polymerase I activity (reporter gene) (human RNA polymerase I [5]): did not inhibit | EC50 [6]: 0.42 µM | EC50 ([7]; Zika virus, ZIKV strain MR766, human Huh-7 or mouse MEF cells): 0.74 µM | antiviral inhibition potency (EC50), in words ([7]; summary statement): submicromolar | solubility [8]: ≤ 10 µM | CC50 [9]: > 10 µM | CC50 at 3 day ([10]; cytotoxicity column of the ZIKV assay, read-out: ZIKV CC50): > 10 µM | CC50 at 3 day ([10]; summary statement, cytotoxicity in cell culture, read-out: Huh-7 cell CC50): > 100 µM

[N-]=[N+]=N[C@]1(COP(=O)(O)OP(=O)(O)OP(=O)(O)O)O[C@@H](n2ccc(=O)[nH]c2=O)[C@H](O)[C@@H]1O [Compound 4AUTP, 4′-azido-uridine triphosphate]
activity against RSV polymerase (RSV polymerase): not active | IC50 (human RNA polymerase II [11]): > 1000 µM | IC50 (human DNA polymerase α): > 1000 µM | activity against influenza polymerase (influenza polymerase): not active | inhibition of HCV polymerase (HCV polymerase): inhibition | inhibition of Dengue virus polymerase (Dengue virus polymerase): inhibition | IC50 (human RNA polymerase III [12]): > 1000 µM | IC50 (human DNA polymerase β): > 1000 µM | IC50 (human RNA polymerase I [13]): > 1000 µM | IC50 [14]: > 1000 µM
